Experimental data taken from US20230138047A1, “ANTI-CLAUDIN-1 MONOCLONAL ANTIBODIES FOR THE PREVENTION AND TREATMENT OF FIBROTIC DISEASES” (Université de Strasbourg, priority 2019, published 2023).
Structures can show the parent of a compound that is named as a salt.

Tests used:
[1] = test system: bleomycin-induced pulmonary fibrosis
Method: Materials and Methods Protocol to Examine the Effects of an anti-human CLDN1 Monoclonal Antibody in Preventing Fibrosis in a Bleomycin-Induced Pulmonary Fibrosis Model. Pathogen-free 6 weeks old female C57BL/6Jmice were obtained from Japan SLC, Inc. (Japan). At Day 0, 54 mice were induced to develop pulmonary fibrosis by a single intratracheal administration of bleomycin hydrochloride (BLM, Nippon Kayaku, Japan) in saline at a dose of 3.0 mg/kg, in a volume of 50 μL per animal using Microsprayer® (Penn-Century, USA). In each slot, the mice were randomized into 3 groups of 18 mice based on their body weight on the day before the start of treatment at Day 0. Individual body weights were measured daily during the experimental period. Survival, clinical signs and behaviour of mice were monitored daily.
Mice groups. Group 1 (Vehicle): Eighteen bleomycin-induced pulmonary fibrosis model mice were intraperitoneally administered vehicle [Saline] in a volume of […] once weekly from Day 0 to 20. […] Group 3 (Dexamethasone): Eighteen bleomycin-induced pulmonary fibrosis model mice were orally administered pure water supplemented with Dexamethasone at a dose of 0.25 mg/kg (in a volume of 10 mL/kg) once daily from Day 0 to 20. Mice in all groups were sacrificed at Day 21.
Survival, biochemical and histological analysis. […]

[2] = test system: BLM-induced skin fibrosis; assay: Bleomycin-induced skin fibrosis model; format: in vivo, mouse; details: 50 mg/kg i.p., BLM for 4 weeks
Excerpt: BLM Model and Sampling. As indicated on the scheme presented on FIG. 6, the BLM is subcutaneously injected every other day into the pre-shaved back of mice for 4 weeks. The injection sites are located at the corners of a 1.5 cm^2-square shaved area and used in rotation (corner 1, corner 2, corner 3, corner 4, corner 1, etc). A 5-mm circle is clipped using a dermal punch and used for collagen quantification. The remaining intact area is cut out into 3 rectangles, one for histology and two for biochemical analyses.
Effects of Imatinib on Skin Fibrosis. Imatinib mesylate is a tyrosine kinase inhibitor against c-Abl, PDGFR, and several other tyrosine kinases (Alfiya et al., Arthritis Rheum., 2009, 60: 219). c-Abl is crucial for induction of ECM proteins through the TGF-β pathway. Its inhibition may reduce the synthesis of EMC components. Imatinib interferes with PDGF signalling by blocking the tyrosine kinase activity of PDGFR (Alfiya et al., Arthritis Rheum., 2009, 60: 219). The study design is presented on FIG. 7.

[3] = test system: bleomycin-induced pulmonary fibrosis; assay: Bleomycin-induced pulmonary fibrosis model, late treatment (Day 7 to 20); format: in vivo, C57BL/6J mice; details: mean±SD, Day 21
Excerpt: Protocol to Examine the Effects of anti-human CLDN1 Monoclonal Antibody in Treating Fibrosis in a Bleomycin-Induced Pulmonary Fibrosis Model. Pathogen-free 6 weeks old female C57BL/6Jmice will be obtained from Japan SLC, Inc. (Japan). […] The mice were transferred to a clean cage (resting cage) and kept until recovery from anesthesia. The bleomycin administration took place on two separate days, with equal numbers of mice assigned to each day. […] Mice groups. […] Survival, biochemical and histological analysis. […] Lung hydroxyproline content was assessed according to a routine method. Statistical tests. Statistical tests were performed using Kruskal-Wallis test.

[4] = test system: UUO-induced renal interstitial fibrosis; assay: Unilateral ureteral obstruction (UUO)-induced renal interstitial fibrosis; format: in vivo
Method: Test Substances. A murinized version of an anti CLDN1 mAb was synthetized at the Inventors' laboratory and used in the present study. […] To prepare dosing solution, the anti-CLDN1 mAb was diluted with a saline solution used as vehicle. Telmisartan (Micardis®) was purchased from Boehringer Ingelheim GmbH (Germany) and dissolved in pure water.
Unilateral Ureteral Obstruction (UUO) Surgery. On Day 0, UUO surgery was performed under three types of mixed anesthetic agents (medetomidine, midazolam, butorphanol). After shaving the hair, the abdomen was cut open and the left ureter was exteriorized. The ureter was ligated by 4-0 silk sutures at two points. The peritoneum and the skin were closed with sutures, and the mice were transferred to a clean cage and kept until recovery from anesthesia.
Route of Drug Administration. The anti-CLDN1 mAb was administered intraperitoneally at a volume of 100 μL/mouse. Telmisartan was administered orally at a volume of 10 μL/mouse.
Treatment Doses. The anti-CLDN1 mAb was administered at a dose of 500 μg/100 μL/mouse. Telmisartan was administered at a dose of 30 mg/kg once daily.
Animals. Seven-week-old female C57BL/6J mice were obtained from Japan SLC, Inc. (Japan). Animals were housed and fed with a normal diet (CE-2; CLEA Japan, Japan) under controlled conditions. All animals used in the study were housed and cared for in accordance with the Japanese Pharmacological Society Guidelines for Animal Use. The animals were maintained in a SPF facility under controlled conditions of temperature (23±3° C.), humidity (50±20%), lighting (12-hour artificial light and dark cycles; light from 8:00 to 20:00) and air exchange. A high pressure was maintained in the experimental room to prevent contamination of the facility. The animals were housed in TPX cages (CLEA Japan) with a maximum of 4 mice per cage. Sterilized Paper-Clean (Japan SLC) was used for bedding and replaced once a week.
Measurement of Plasma Biochemistry. For plasma biochemistry, non-fasting blood was collected in polypropylene tubes with anticoagulant (Novo-Heparin, Mochida Pharmaceutical Co. Ltd., Japan) and centrifuged at 1,000×g for 15 minutes at 4° C. The supernatant was collected and stored at −80° C. until use. Plasma urea nitrogen was measured by FUJI DRI-CHEM 7000 (Fujifilm, Japan).
Measurement of Kidney Biochemistry. To quantify kidney hydroxyproline content, frozen left kidney samples were processed by an alkaline-acid hydrolysis method as follows. Kidney samples were dissolved in 2N NaOH at 65° C., and autoclaved at 121° C. for 20 minutes. The lysed samples (150 μL) were acid-hydrolyzed with 150 μL of 6N HCl at 121° C. for 20 minutes, and neutralized with 150 μL of 4N NaOH containing 10 mg/mL activated carbon. AC buffer (2.2M acetic acid/0.48M citric acid, 150 μL) was added to the samples, followed by centrifugation to collect the supernatant. A standard curve of hydroxyproline was constructed with serial dilutions of trans-4-hydroxy-L-proline (Sigma-Aldrich, USA) starting at 16 μg/mL. The prepared samples and standards (each 400 μL) were mixed with 400 μL chloramine T solution (Nacalai Tesque Inc., Japan) and incubated for 25 minutes at room temperature. The samples were then mixed with Ehrlich's solution (400 μL) and heated at 65° C. for 20 minutes for color development. After samples were cooled on ice and centrifuged to remove precipitates, the optical density of each supernatant was measured at 560 nm. The concentrations of hydroxyproline were calculated from the hydroxyproline standard curve. Protein concentrations of kidney samples were determined using a BCA protein assay kit (Thermo Fisher Scientific, USA) and used to normalize the calculated hydroxyproline values. Kidney hydroxyproline contents were expressed as μg per mg protein.
Histopathological Analyses. For PAS staining, sections were cut from paraffin blocks and stained with Schiff's reagent (Wako Pure Chemical Industries) according to the manufacturer's instructions. […]

[5] = target: T1, human Claudin-1 (CLDN1) (human, UniProt O95832 1-211); assay: flow cytometry on RPTEC/TERT1 kidney cells, PE median fluorescence, Michaelis-Menten fit
T1 construct: whole, on cells; Tight junction membrane protein; endogenously expressed on the cell lines, primary cells and tissues used; also called CLDNA
T1 sequence (looked up): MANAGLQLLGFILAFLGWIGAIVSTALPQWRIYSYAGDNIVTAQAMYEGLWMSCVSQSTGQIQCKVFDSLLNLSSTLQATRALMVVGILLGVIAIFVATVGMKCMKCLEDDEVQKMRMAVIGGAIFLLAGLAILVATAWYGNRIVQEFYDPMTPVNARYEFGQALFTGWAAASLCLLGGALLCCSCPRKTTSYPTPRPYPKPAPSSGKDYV
Method: (§1) FIG. 4. Binding Properties of Humanized CLDN1-specific MAbs Targeting CLDN1 Expressed on Kidney RPTEC/TERT1 and Lung A549 Cell Lines. Cells were incubated with increasing concentrations of humanized H3L3 CLDN1-specific mAb, as indicated. Representative histograms show binding of humanized H3L3 CLDN1-specific mAb at the saturation point for each specific cells line: (A) RPTEC/TERT1 (50 μg/mL) and (B) A549 (20 μg/mL). Binding was measured by flow cytometry after incubation with PE-labelled anti-human and analyzed with Cytoflex and FlowJo V10. […] The graphs show binding of humanized H3L3 CLDN1-specific mAb until the saturation point for each specific cell line.
(§2) Binding Studies. Cells were de-attached using a solution of EDTA (4 mM) and re-suspended in PBS containing 1% FBS at 4° C. Then, 150,000 cells were incubated with increasing concentrations of the humanized H3L3 CLDN1-specific mAb (see WO/2017/162678) and the binding signals were read by flow cytometry after incubation with PE-labelled anti-human using a dilution of 1:100 and analyzed with Cytoflex and FlowJo V10. Two washes with PBS containing 1% FBS were performed after every antibody incubation. A binding curve for each cell line was built using the PE median fluorescence intensity (MFI) and the Kd of the interaction was calculated by applying the Michaelis-Menten mathematical model in R 3.5.1.

[6] = target: T1, human Claudin-1 (CLDN1); assay: flow cytometry on A549 lung cells, PE median fluorescence, Michaelis-Menten fit
Method: as §1, §2

[7] = Antibody biodistribution in mice (Alexa-fluor 750 label, ex vivo organ fluorescence); set-up: species or system Balb/c mice; details: 500 μg i.p.; organs harvested at 24 hours and 48 hours
Method: Reagents and Antibodies. The anti-Claudin-1 monoclonal antibody (anti-CLDN1 mAb-OM-7D3-B3) was produced as previously described (Fofana et al., Gastroenterology, 2010, 139: 953-964, e1-4). Control mAb (rat IgG2b clone LTF-25, Bio X Cell) was also used.
Antibody biodistribution. The antibodies were labeled with Alexa-fluor 750 (RD-Biotech, Besangon, France). Eight week-old Balb/c mice were injected intraperitoneally with 500 μg of Alexa-fluor 750-labeled CLDN1-specific or control mAb. Organs were harvested 24 hours and 48 hours as previously described (Krieger et al., Hepatology, 2010, 51: 1144-1157) and ex vivo organ-specific fluorescence was detected with an IVIS Lumina 50 (Xenogen-Caliper-Perkin-Elmer) and expressed as average efficiency.
Statistical Analyses. The Mann-Whitney test was used. A p-value <0.05 was considered significant. Statistical analyzes were performed with GraphPad Prism 6 software.

[8] = kidney sections versus Vehicle group

C[C@@H]1C[C@H]2[C@@H]3CCC4=CC(=O)C=C[C@]4(C)[C@@]3(F)[C@@H](O)C[C@]2(C)[C@@]1(O)C(=O)CO [Dexamethasone]
mice found dead before reaching Day 21 ([1]; 18 mice per group): Ten out of 18 | survival rate compared with Vehicle group ([1]; Kaplan-Meier, Log Rank Test): significant decrease

Cc1ccc(NC(=O)c2ccc(CN3CCN(C)CC3)cc2)cc1Nc1nccc(-c2cccnc2)n1 [Imatinib, Imatinib mesylate]
dermal thickness ([2]; HE staining): significant decrease | skin fibrosis area ([2]; Masson staining): significant decrease

COC(=O)c1ccc2c(c1)NC(=O)/C2=C(\Nc1ccc(N(C)C(=O)CN2CCN(C)CC2)cc1)c1ccccc1 [Nintedanib]
lung hydroxyproline levels [3]: 51.3±9.0

CCCc1nc2c(C)cc(-c3nc4ccccc4n3C)cc2n1Cc1ccc(-c2ccccc2C(=O)O)cc1 [Telmisartan]
Sirius red-positive area ([4]; fibrosis area, mean ± S.D., n = 8): 2.44 ± 1.19% | inflammatory cell infiltration, F4/80 immunostaining [4, 8]: lower than that in the Vehicle group | inflammatory cell infiltration, PAS staining [4, 8]: lower than in the Vehicle group | Kidney hydroxyproline ([4]; left kidney, mean ± S.D., n = 8): 6.19 ± 2.31 μg/mg total protein | Right kidney weight ([4]; mean ± S.D., n = 8): 139 ± 9 mg | Body weight ([4]; mouse, in vivo): 18.7 ± 1.1 g | Plasma urea nitrogen ([4]; mouse, in vivo): 33.9 ± 5.2 mg/dL | Left kidney weight ([4]; obstructed kidney, mean ± S.D., n = 8): 630 ± 160 mg

B1: humanized H3L3 CLDN1-specific mAb (antibody, V domains shown)
VH: QVQLVESGGGVVQPGRSLRLSCLGSGFSFSSYGMNWVRQAPGKGLEWVASISPSGSYFYYADSVKGRFTISRDNSKNTLYLQMTSLRAEDTAIYYCARLPGFNPPFDHWGQGTLVTVSS
VL: DIQMTQSPSSLSASVGDRVTITCKASQNVGGNVDWYQWKPGKAPKLLIYGASNRYTGVPDRFRGSGSGTDFTLTISSLQPEDVATYYCLQYKNNPWTFGGGTKVEIK
notes: also called anti-CLDN1 mAb H3L3; humanized anti-CLDN1 mAb
Kd [5]: 53 nM | Kd [6]: 16.3 nM

B2: OM-7D3-B3: rat monoclonal antibody against human Claudin-1 secreted by hybridoma DSM ACC2938; VH SEQ ID NO: 1, VL SEQ ID NO: 2 (antibody, V domains shown)
VH: EVQLVESGGGLVQPGRSLKLSCLGSGFSFSSYGMNWIRQAPGKGLEWVASISPSGSYFYYADSVKGRFTISRENAKNTLYLQMTSLRAEDTALYYCARLPGFNPPFDHWGQGVVVTVSS
VL: NTVMTQSPTSMFMSVGDRVTMNCKASQNVGGNVDWYQWKPGQSPKLLMYGASNRYTGVPDRFRGSGSGTDFTLTISNMQTEDLAVYYCLQYKNNPWTFGGGTKVELK
modifications: variable heavy chain of OM-7D3-B3; variable light chain of OM-7D3-B3
organ enrichment of labeled antibody versus control mAb [7]: enrichment in the anti-CLDN1 monoclonal antibody was observed in skin, kidneys, lungs, intestines and liver
